Data reported in patent publication US11130960B2, “Methods for conferring or enhancing herbicide resistance on plants and/or alga with protoporphyrinogen oxidase variants” (FARM HANNONG CO., LTD., priority 2014, dated 2021).

System: Halothece sp. PCC 7418 strain
Test: Herbicide resistance test of Halothece sp. PCC 7418 strain in CRBIP medium
Type: cell-based
Conditions: 8 days after treatment, CRBIP Medium 1538
Experimental: Halothece sp. PCC 7418 strain was cultured in CRBIP Medium 1538 (Institut Pasteur, France). CRBIP Medium 1538 is a mixed medium of ASNIII and Turks Island Salts 4× at a ratio of 1:1(v/v), and ASNIII medium was composed of 25.0 g of NaCl, 3.5 g of MgSO4.7H2O, 2.0 g of MgCl2.6H2O, 0.5 g of KCl, 0.5 g of CaCl2.2H2O, 0.75 g of NaNO3, 0.02 g of K2HPO4.3H2O, 0.04 g of NaCO3, 2.5 ml of ammonium iron(III) citrate/citric acid monohydrate solution [a mixture of 300 mg of ammonium iron(III) citrate, 300 mg of citric acid monohydrate, and 250 ml of distilled water], 2.5 ml of magnesium titriplex dihydrate solution [a mixture of 0.1 g of Mg EDTA and 500 ml of distilled water], 1 ml of trace metal A5+Co [a mixture of 2.86 g of H3BO3, 1.81 g of MnCl2.4H2O, 0.222 g of ZnSO4.7H2O, 0.39 g of NaMoO4.2H2O, 0.079 g of CuSO4.5H2O, 0.049 g of Co(NO3)2.6H2O and 1000 ml of distilled water], and 1000 ml of distilled water. Turks Island Salts 4× was composed of 112 g of NaCl, 2.68 g of KCl, 22 g of MgCl2.6 H2O, 27.7 g of MgSO4.7 H2O, 5.8 g of CaCl2.2 H2O, and 1000 ml of distilled water. ASNIII medium and Tursk Island Salts 4× were autoclaved at 120° C. for 20 minutes, respectively and then mixed at a ratio of 1:1(v/v).
5 ml of the above culture medium was added to a test tube, and 2 or 10 μM of Tiafenacil was added thereto or not. The seed-cultured Halothece sp. […]

COC(=O)CCNC(=O)C(C)Sc1cc(-n2c(=O)cc(C(F)(F)F)n(C)c2=O)c(F)cc1Cl (stereo not shown) [Tiafenacil]
concentration at which growth of the strain was maintained: 10 µM
